In patent US20090036420A1, “BENZAMIDE DERIVATIVES AND THEIR USE FOR TREATING CNS DISORDERS” (priority 2007, published 2009):
Read-outs that look alike come from different tables or passages of the source.

Molecular target: T1, TAAR1 (Mus musculus, UniProt Q923Y8)
T1 construct: expressed in transfected cells; host or cells: HEK293 cells (ATCC #CRL-1573), stably transfected with pIRESneo2 expression plasmid; membrane preparation
Test: Radioligand binding assay on membranes of HEK293 cells stably expressing TAAR1
Settings: radioligand [3H]-rac-2-(1,2,3,4-tetrahydro-1-naphthyl)-2-imidazoline 60 nM, 4° C., 30 min
Method: The Expand High Fidelity PCR System (Roche Diagnostics) was used with 1.5 mM Mg^2+ and purified PCR products were cloned into pCR2.1-TOPO cloning vector (Invitrogen) following the instructions of the manufacturer. PCR products were subcloned into the pIRESneo2 vector (BD Clontech, Palo Alto, Calif.), and expression vectors were sequence verified before introduction in cell lines.
For the generation of stably transfected cell lines HEK293 cells were transfected with the pIRESneo2 expression plasmids containing the TAAR coding sequences (described above) with Lipofectamine 2000 (Invitrogen) according to the instructions of the manufacturer, and 24 hrs post transfection the culture medium was supplemented with 1 mg/ml G418 (Sigma, Buchs, Switzerland). After a culture period of about 10 d clones were isolated, expanded and tested for responsiveness to trace amines (all compounds purchased from Sigma) with the cAMP Biotrak Enzyme immunoassay (EIA) System (Amersham) following the non-acetylation EIA procedure provided by the manufacturer.
Cells at confluence were rinsed with ice-cold phosphate buffered saline without Ca^2+ and Mg^2+ containing 10 mM EDTA and pelleted by centrifugation at 1000 rpm for 5 min at 4° C. The pellet was then washed twice with ice-cold phosphate buffered saline and cell pellet was frozen immediately by immersion in liquid nitrogen and stored until use at −80° C. Cell pellet was then suspended in 20 ml HEPES-NaOH (20 mM), pH 7.4 containing 10 mM EDTA, and homogenized with a Polytron (PT 3000, Kinematica) at 10,000 rpm for 10 s. The homogenate was centrifuged at 48,000×g for 30 min at 4° C. and the pellet resuspended in 20 ml HEPES-NaOH (20 mM), pH 7.4 containing 0.1 mM EDTA (buffer A), and homogenized with a Polytron at 10,000 rpm for 10 s. The homogenate was then centrifuged at 48,000×g for 30 min at 4° C. and the pellet resuspended in 20 ml buffer A, and homogenized with a Polytron at 10,000 rpm for 10 s. Protein concentration was determined by the method of Pierce (Rockford, Ill.). […] Non-specific binding was defined as the amount of [^3H]-rac-2-(1,2,3,4-tetrahydro-1-naphthyl)-2-imidazoline bound in the presence of the appropriate unlabelled ligand (10 μM). Competing ligands were tested in a wide range of concentrations (10 pM-30 μM). […] Each experiment was performed in duplicate. All incubations were terminated by rapid filtration through UniFilter-96 plates (Packard Instrument Company) and glass filter GF/C, pre-soaked for at least 2 h in polyethylenimine 0.3%, and using a Filtermate 96 Cell Harvester (Packard Instrument Company). The tubes and filters were then washed 3 times with 1 ml aliquots of cold buffer B. Filters were not dried and soaked in Ultima gold (45 μl/well, Packard Instrument Company) and bound radioactivity was counted by a TopCount Microplate Scintillation Counter (Packard Instrument Company).

[1] = read-out: Ki value (μM) in mouse

T1 sequence (Q923Y8 whole entry): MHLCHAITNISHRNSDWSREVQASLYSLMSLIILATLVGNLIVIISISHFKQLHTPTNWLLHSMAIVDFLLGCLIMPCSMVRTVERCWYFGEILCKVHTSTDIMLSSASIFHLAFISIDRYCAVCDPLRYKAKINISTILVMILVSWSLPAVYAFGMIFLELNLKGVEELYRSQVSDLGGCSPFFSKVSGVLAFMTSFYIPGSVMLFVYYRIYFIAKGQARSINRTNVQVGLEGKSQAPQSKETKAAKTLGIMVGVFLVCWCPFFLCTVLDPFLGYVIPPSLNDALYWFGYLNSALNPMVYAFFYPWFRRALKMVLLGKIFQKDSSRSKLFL

SMILES: COc1cccc(NC(=O)c2ccc(Nc3ccccc3)c([N+](=O)[O-])c2)c1 [Example 97, N-(3-Methoxy-phenyl)-3-nitro-4-phenylamino-benzamide]
- Ki [1]: 0.029 µM

SMILES: O=C(Nc1cccc(Cl)c1)c1ccc(N2CCNCC2)nc1 [Example 84, N-(3-Chloro-phenyl)-6-piperazin-1-yl-nicotinamide]
- Ki [1]: 0.076 µM

SMILES: COc1cccc(NC(=O)c2ccc(N3CCOCC3)c(C(F)(F)F)c2)c1 [Example 150, N-(3-Methoxy-phenyl)-4-morpholin-4-yl-3-trifluoromethyl-benzamide]
- Ki (Ki value (μM) in mouse): 0.086 µM

SMILES: O=C(Nc1cccc(Cl)c1)c1cnc(N2CCCC2)c(Cl)c1 [Example 154, 5-Chloro-N-(3-chloro-phenyl)-6-pyrrolidin-1-yl-nicotinamide]
- Ki [1]: 0.014 µM

SMILES: COc1cccc(NC(=O)c2cnc(Cl)c(C(F)(F)F)c2)c1 [Example 178, 6-Chloro-N-(3-methoxy-phenyl)-5-trifluoromethyl-nicotinamide]
- Ki [1]: 0.008 µM

SMILES: COc1cccc(NC(=O)c2ccc(NC(C)C)c(C(F)(F)F)c2)c1 [Example 149, 4-Isopropylamino-N-(3-methoxy-phenyl)-3-trifluoromethyl-benzamide]
- Ki [1]: 0.022 µM

SMILES: CCCCNc1ncc(C(=O)Nc2cccc(Cl)c2)cc1Cl [Example 158, 6-Butylamino-5-chloro-N-(3-chloro-phenyl)-nicotinamide]
- Ki (Ki value (μM) in mouse): 0.008 µM

SMILES: CCCCNc1ncc(C(=O)Nc2cccc(OC)c2)cc1Cl [Example 208]
- Ki (Ki value (μM) in mouse): 0.0463 µM

SMILES: O=C(Nc1cccc(F)c1)c1ccc(N2CCCC2)c(C(F)(F)F)c1 [Example 185, N-(3-Fluoro-phenyl)-4-pyrrolidin-1-yl-3-trifluoro-methyl-benzamide]
- Ki [1]: 0.009 µM

SMILES: CC1CCN(c2ncc(C(=O)Nc3cccc(Cl)c3)cc2Cl)CC1 [Example 155, 3′-Chloro-4-methyl-3,4,5,6-tetrahydro-2H-[1,2′]bipyridinyl-5′-carboxylicacid (3-chloro-phenyl)-amide]
- Ki (Ki value (μM) in mouse): 0.023 µM

SMILES: O=C(Nc1cccc(Br)c1)c1ccc(N2CCCC2)c(C(F)(F)F)c1 [Example 187, N-(3-Bromo-phenyl)-4-pyrrolidin-1-yl-3-trifluoro-methyl-benzamide]
- Ki [1]: 0.046 µM

SMILES: CC(C)Oc1cccc(NC(=O)c2ccc(N3CCCC3)c(C(F)(F)F)c2)c1 [Example 183, N-(3-Isopropoxy-phenyl)-4-pyrrolidin-1-yl-3-trifluoro-methyl-benzamide]
- Ki [1]: 0.007 µM

SMILES: CC(C)Nc1ncc(C(=O)Nc2cccc(Cl)c2)cc1Cl [Example 152, 5-Chloro-N-(3-chloro-phenyl)-6-isopropylamino-nicotinamide]
- Ki [1]: 0.027 µM

SMILES: COc1cccc(NC(=O)c2ccc(N3CCCC3)c(C(F)(F)F)c2)c1 [Example 137, N-(3-Methoxy-phenyl)-4-pyrrolidin-1-yl-3-trifluoromethyl-benzamide]
- Ki [1]: 0.002 µM

SMILES: CN1CCN(c2ncc(C(=O)Nc3cccc(Cl)c3)cc2Cl)CC1 [Example 164, 5-Chloro-N-(3-chloro-phenyl)-6-(4-methyl-piperazin-1-yl)-nicotinamide]
- Ki [1]: 0.001 µM

SMILES: COc1cccc(NC(=O)c2ccc(F)c(Cl)c2)c1 [Example 70, 3-Chloro-4-fluoro-N-(3-methoxy-phenyl)-benzamide]
- Ki [1]: 0.1 µM

SMILES: COc1cccc(NC(=O)c2ccc(N3CCC3)c(C(F)(F)F)c2)c1 [Example 140, 4-Azetidin-1-yl-N-(3-methoxy-phenyl)-3-trifluoromethyl-benzamide]
- Ki [1]: 0.016 µM

SMILES: COc1cccc(NC(=O)c2ccc(N3CCC3)c([N+](=O)[O-])c2)c1 [Example 92, 4-Azetidin-1-yl-N-(3-methoxy-phenyl)-3-nitro-benzamide]
- Ki [1]: 0.029 µM

SMILES: CN1CCN(c2ccc(C(=O)Nc3cccc(Cl)c3)cn2)CC1 [Example 135, N-(3-Chloro-phenyl)-6-(4-methyl-piperazin-1-yl)-nicotinamide]
- Ki [1]: 0.009 µM

SMILES: Cc1cnc(C)n1Cc1cccc(NC(=O)c2ccc(Cl)c(Cl)c2)c1 [Example 177, 3,4-Dichloro-N-[3-(2,5-dimethyl-imidazol-1-ylmethyl)-phenyl]-benzamide]
- Ki [1]: 0.049 µM

SMILES: COc1cccc(NC(=O)c2ccc(NCc3ccccc3)c(C(F)(F)F)c2)c1 [Example 147, 4-Benzylamino-N-(3-methoxy-phenyl)-3-trifluoromethyl-benzamide]
- Ki [1]: 0.005 µM

SMILES: O=C(Nc1ccccc1)c1ccc([N+](=O)[O-])c(C(F)(F)F)c1 [Example 324, 4-Nitro-N-phenyl-3-trifluoromethyl-benzamide]
- Ki [1]: 0.0674 µM

SMILES: COc1cccc(NC(=O)c2cccc(S(=O)(=O)N3CCCCCC3)c2)c1 [Example 170, 3-(Azepane-1-sulfonyl)-N-(3-methoxy-phenyl)-benzamide]
- Ki (Ki value (μM) in mouse): 0.024 µM

SMILES: COc1cccc(NC(=O)c2ccc(N3CCC(C#N)CC3)c(C(F)(F)F)c2)c1 [Example 196, 4-(4-Cyano-piperidin-1-yl)-N-(3-methoxy-phenyl)-3-trifluoromethyl-benzamide]
- Ki [1]: 0.022 µM

SMILES: COc1cccc(NC(=O)c2ccc(NC(C)C)c([N+](=O)[O-])c2)c1 [Example 91, 4-Isopropylamino-N-(3-methoxy-phenyl)-3-nitro-benzamide]
- Ki [1]: 0.012 µM

SMILES: COc1cccc(NC(=O)c2cnc(N3CCC(C)CC3)c(Cl)c2)c1 [Example 207]
- Ki [1]: 0.0098 µM

SMILES: COc1cccc(NC(=O)c2cnc(N3CCC(C)CC3)c(C(F)(F)F)c2)c1 [Example 201]
- Ki [1]: 0.0017 µM

SMILES: COc1cccc(NC(=O)c2cnc(N3CCCC3)c(C(F)(F)F)c2)c1 [Example 179, N-(3-Methoxy-phenyl)-6-pyrrolidin-1-yl-5-trifluoromethyl-nicotinamide]
- Ki [1]: 0.002 µM

SMILES: O=C(Nc1ccccc1)c1ccc(Cl)c(C(F)(F)F)c1 [Example 6, 4-Chloro-N-phenyl-3-trifluoromethyl-benzamide]
- Ki [1]: 0.098 µM

SMILES: O=C(Nc1ccccc1)c1ccc([N+](=O)[O-])c(C(F)(F)F)c1 [Example 219, 3-Trifluoromethyl-4-nitro-N-phenyl-benzamide]
- Ki [1]: 0.067 µM

SMILES: COc1cccc(NC(=O)c2ccc(F)c(C(F)(F)F)c2)c1 [Example 73, 4-Fluoro-N-(3-methoxy-phenyl)-3-trifluoromethyl-benzamide]
- Ki [1]: 0.03 µM

SMILES: O=C(Nc1cccc(Cl)c1)c1cnc(N2CCC2)c(Cl)c1 [Example 162, 6-Azetidin-1-yl-5-chloro-N-(3-chloro-phenyl)-nicotinamide]
- Ki (Ki value (μM) in mouse): 0.042 µM

SMILES: COc1cccc(NC(=O)c2ccc(N3CCCCCC3)c(C(F)(F)F)c2)c1 [Example 195, 4-Azepan-1-yl-N-(3-methoxy-phenyl)-3-trifluoromethyl-benzamide]
- Ki [1]: 0.011 µM

SMILES: CCc1cccc(NC(=O)c2ccc(N3CCCC3)c(C(F)(F)F)c2)c1 [Example 180, N-(3-Ethyl-phenyl)-4-pyrrolidin-1-yl-3-trifluoromethyl-benzamide]
- Ki [1]: 0.021 µM

SMILES: COc1cccc(NC(=O)c2ccc(N3CCCCC3)c(C(F)(F)F)c2)c1 [Example 141, N-(3-Methoxy-phenyl)-4-piperidin-1-yl-3-trifluoromethyl-benzamide]
- Ki [1]: 0.038 µM
